Source: PMC9240354, “Pharmacokinetics, Pharmacodynamics and Antiviral Efficacy of the MEK Inhibitor Zapnometinib in Animal Models and in Humans” (Frontiers in Pharmacology, 2022)

Key:
tolerability in mice = assay type: in vivo; details: influenza virus infected mice, 25 mg/kg BID p.o.
Experimental: Zapnometinib [2-(2-Chloro-4-Iodophenylamino)-N-3,4-Difluoro benzoic acid] (M = 409.56 g/mol) was synthesized at ChemCon GmbH (Freiburg, Germany). The doses used in this study were chosen based on previously unpublished preclinical data. […] The toxicity of zapnometinib was evaluated in single- and repeat-dose p. o. studies of up to 1-month duration in rats and dogs. The genetic toxicity of zapnometinib was investigated in compliance with ICH S2; a standard battery of genotoxicity studies was performed, comprising an Ames test, an in vitro chromosome aberration test in human lymphocytes and an in vivo micronucleus assay in rats. Thus, the doses used in this manuscript were safe (Koch-Heier et al., manuscript in preparation). For treatment of mice, 10.5 mg zapnometinib were dissolved in 5% (v/v) dimethyl sulfoxide (DMSO) (Carl Roth GmbH, Karlsruhe, Germany) and further diluted with 15% (v/v) Cremophor EL (Merck KGaA, Darmstadt, Germany), and 80% (v/v) phosphate-buffered saline (PBS) (Gibco, Carlsbad, CA, California, United States). Each mouse received a dose of 25 mg/kg zapnometinib in an application volume of 200 µL of the formulation by oral gavage. The first treatment was given on day 0 (1 h prior to influenza virus infection) and the second treatment 7 h post infection. […]

human PBMCs = details: read-out: CC50 cytotoxicity, ref Laure et al., 2020; cited from earlier work
plasma binding = details: stated in discussion, no data shown
SARS-CoV-2 = tested on: SARS-CoV-2; parameters: method as in Schreiber et al., 2022; details: reduction in viral growth in cell lines; ref Schreiber et al., 2022; cited from earlier work

In the case of `O=C(O)c1ccc(F)c(F)c1Nc1ccc(I)cc1Cl` [zapnometinib, 2-(2-Chloro-4-Iodophenylamino)-N-3,4-Difluoro benzoic acid], the tolerability (tolerability in mice) is given as “well tolerated and not toxic”, the CC50 (human PBMCs) is given as 322 µM and the plasma binding (plasma binding) is given as “high plasma binding”. The anti-SARS-CoV-2 activity (SARS-CoV-2) was “potent anti-SARS-CoV-2 activity”.
